This is an account of results in paper PMC6412891, “Synthesis and Biological Evaluation of Novel Thiazolyl-Coumarin Derivatives as Potent Histone Deacetylase Inhibitors with Antifibrotic Activity” (Molecules, 2019).

Test [1] deals with procollagen type I expression in CFs. Description: Procollagen type I expression levels in cardiac fibroblasts, western blot. It counts as cell-based, rat. To be noted: derivatives 5 μM (TSA 0.1 μM) for 48 h in presence of TGF-β1. On the procedure: In CFs collagen type I secretion is a hallmark of cardiac fibrosis development, which is regulated by HDACs. […] For this purpose, a fixed concentration of 5a, 6a, 7a and 8a derivatives in presence/absence of TGF-β1 were studied, and procollagen type I expression levels were measured by using the western blot technique. TSA was used as control and also for comparative purposes. In Figure 5 (A and B), in the upper panel representative photographs of procollagen type I expression level and GAPDH (used as charge control) are shown, whereas in the lower panel the graphic analyses are observed.
(§1) For the analysis of the protein expression of histone H4–acetylated (ac–H4) and total H4 histone, a number of 1 × 10^6 of CFs seeded in 60 mm plates was used, which were incubated with the inhibitory compounds at a concentration of 10 μM, in the absence/presence of TGF–β1(5ng/mL) for 4 h. Subsequently, total histones were extracted by the technique of saline precipitation (high salt extraction). Briefly, CFs were scraped from the plates with 1 mL of cold PBS transferring their contents to Eppendorf tubes to be centrifuged for 60 s at 1500 rpm at 4 °C and re–suspended in 400 μL of cold buffer A (10 mM 4-(2-hydroxyethyl)-1-piperazineethanesulfonic acid-KOH (HEPES-KOH) adjusted to pH 7.9, 1.5 mM MgCl2, 10 mM KCl, 0.5 mM dithiothreitol and 0.2 mM phenylmethylsulfonyl fluoride (PMSF). The suspension is left on ice for 10 min and then placed in the vortex for 10 s. The samples were centrifuged for 60 s, subsequently discarding the supernatant fraction. The obtained pellet was re-suspended in 60 μL of cold C buffer (20 mM HEPES-KOH adjusted to pH 7.9, 25% glycerol, 420 mM NaCl, 1.5 mM MgCl2, 0.2 mM EDTA, dithiothreitol 0.5 mM and 0.2 mM PMSF) and placed on ice for 20 min for saline precipitation. Cell debris is removed by centrifugation for 120 s at 1500 rpm at 4 °C and the supernatant fraction, which contains the DNA binding proteins, is stored at minus 20 °C. For the analysis of α–SMA and procollagen type I expression levels, 3×10^5 CFs seeded in 35 mm plates were used, which were incubated together with inhibitor compounds at a 5 μM, in the absence/presence of TGF–β1 (5 ng/mL) for 48 h. To obtain the total proteins, the CFs were washed three times with cold PBS, then scraped and lysed with 50 μL of radio inmuno-precipitation assay (RIPA) lysis buffer (10 mM Tris–HCl pH 7.2, 5 mM EDTA, 150 mM NaCl, Triton X–100 1%, sodium dodecyl sulfate (SDS) 0.1%, deoxycholate 1%, leupeptin 2 μg/mL, aprotinin 10mM, PMSF 1mM and Na3VO4 100μM). The solution was centrifuged for 15 min at 10,000 rpm and at 4 °C. The supernatant fraction containing the total proteins was stored at minus 20 °C. The concentration of proteins obtained was determined by spectrophotometry at 570 nm, using the Bradford method (Bio-Rad, Hercules, CA, USA).
(§2) CFs proteins (25 μg), were subjected to 10% sodium dodecyl sulfate-polyacrylamide gel electrophoresis and finally transferred onto a nitrocellulose membrane (Millipore, Billerica, MA, USA). The membrane was washed twice with tris–buffered saline solution containing 0.1% Tween 20 (TBST). After being blocked with TBST containing 5% nonfat milk for 40 min, the membrane was incubated with primary antibodies in TBST/1% nonfat milk at 4 °C overnight. The membrane was washed three times with TBST for a total of 15 min and then incubated with primary antibodies (ac–H4, H4 total, α-SMA, procollagen type I and GAPDH). Then the membrane was incubated with goat anti–rabbit or anti-mouse IgG antibodies conjugated with horseradish (diluted 1:1000) for 1 h at room temperature. Signals were developed with ECL reagents and exposure to photographic film.
Figure 5 CTz non–substituted inhibit procollagen type I expression levels in cardiac fibroblasts. […] (B) CFs were exposed to 5a, 6a, 7a and 8a at 5 μM for 48 h in presence of TGF–β1. Procollagen type I expression levels were measured by western blot. GAPDH was used as control load.
On the technique in general: Immunoblotting shows a protein as a band on a membrane.

For test [2], the system named is HDACs HeLa cells nuclear extract. Description: HDAC inhibitory activity, fluorometric kit, HeLa cell nuclear extract. Type of test: biochemical, human. The note with it: HeLa cell nuclear extract as HDAC source.
Another test has as its system α-SMA expression in CFs. Description: α-SMA expression levels in cardiac fibroblasts, western blot. Type of test: cell-based, rat. To be noted: derivatives 5 μM (TSA 0.1 μM) for 48 h in presence of TGF-β1. On the procedure:
For this purpose, a fixed concentration of 5a, 6a, 7a and 8a derivatives in the presence/absence of TGF–β1 (a strong inducer of CFs–to–CMFs differentiation), was studied, and α–SMA expression levels were measured by using the western blot technique. TSA was used as a control and also for comparative purposes.
as §1, §2
Figure 4 CTz non–substituted inhibit α-SMA expression in cardiac fibroblasts. (A) CFs were exposed to 5a, 6a, 7a and 8a at 5 μM for 48 h. […] (B) CFs were exposed to 5a, 6a, 7a and 8a at 5 μM for 48 h in presence of TGF–β1 ([…]). α-SMA expression levels were measured by western blot. GAPDH was used as control load.

On to `CC(/C=C/C(=O)NO)=C\[C@@H](C)C(=O)c1ccc(N(C)C)cc1` [TSA, trichostatin A, reference compound], for which the “procollagen type I expression levels induced by TGF-β1” value in test [1] is given as “decreased, close to control levels”. In test [2], this compound came in with an IC50 of 5 ± 0.12 nM. For the same compound, the “α-SMA expression levels induced by TGF-β1” value in the test with α-SMA expression in CFs was “decrease close to control levels”.

Usually IC50 stands for the concentration that gives 50% inhibition. A low value points to greater potency in that assay.
